Assay results as given in US20180185520A1, “COLLAGEN IMAGING COMPOSTIONS” (Collagen Medical, LLC, priority 2015, published 2018).

Legend:
[1] = Pharmacokinetics (rat), plasma gadolinium by ICP-MS; assay type: in vivo, Sprague Dawley rats; settings: 1.3 umol/kg iv bolus in 80 mM sucrose, pH 7, plasma 2-90 minutes
Experimental: Compound ID No. 1 was formulated at pH 7 in 80 mM sucrose and administered to Sprague Dawley rats (n=2) at dose of 1.3 umol/kg using a bolus IV injection. Plasma was sampled at 2, 5, 15, 30, and 90 minutes post-injection and analyzed for gadolinium content using ICP-MS (FIG. 15).

human type I collagen = biological target: T1, human type I collagen (Homo sapiens, UniProt P02452+P08123); experiment: Collagen binding assay, dried human collagen in microtiter plate; settings: 37° C., pH 7.4
T1 construct: purchased Advanced Biomatrix 5007-A
T1 sequence (P02452 162-1218 limits assumed): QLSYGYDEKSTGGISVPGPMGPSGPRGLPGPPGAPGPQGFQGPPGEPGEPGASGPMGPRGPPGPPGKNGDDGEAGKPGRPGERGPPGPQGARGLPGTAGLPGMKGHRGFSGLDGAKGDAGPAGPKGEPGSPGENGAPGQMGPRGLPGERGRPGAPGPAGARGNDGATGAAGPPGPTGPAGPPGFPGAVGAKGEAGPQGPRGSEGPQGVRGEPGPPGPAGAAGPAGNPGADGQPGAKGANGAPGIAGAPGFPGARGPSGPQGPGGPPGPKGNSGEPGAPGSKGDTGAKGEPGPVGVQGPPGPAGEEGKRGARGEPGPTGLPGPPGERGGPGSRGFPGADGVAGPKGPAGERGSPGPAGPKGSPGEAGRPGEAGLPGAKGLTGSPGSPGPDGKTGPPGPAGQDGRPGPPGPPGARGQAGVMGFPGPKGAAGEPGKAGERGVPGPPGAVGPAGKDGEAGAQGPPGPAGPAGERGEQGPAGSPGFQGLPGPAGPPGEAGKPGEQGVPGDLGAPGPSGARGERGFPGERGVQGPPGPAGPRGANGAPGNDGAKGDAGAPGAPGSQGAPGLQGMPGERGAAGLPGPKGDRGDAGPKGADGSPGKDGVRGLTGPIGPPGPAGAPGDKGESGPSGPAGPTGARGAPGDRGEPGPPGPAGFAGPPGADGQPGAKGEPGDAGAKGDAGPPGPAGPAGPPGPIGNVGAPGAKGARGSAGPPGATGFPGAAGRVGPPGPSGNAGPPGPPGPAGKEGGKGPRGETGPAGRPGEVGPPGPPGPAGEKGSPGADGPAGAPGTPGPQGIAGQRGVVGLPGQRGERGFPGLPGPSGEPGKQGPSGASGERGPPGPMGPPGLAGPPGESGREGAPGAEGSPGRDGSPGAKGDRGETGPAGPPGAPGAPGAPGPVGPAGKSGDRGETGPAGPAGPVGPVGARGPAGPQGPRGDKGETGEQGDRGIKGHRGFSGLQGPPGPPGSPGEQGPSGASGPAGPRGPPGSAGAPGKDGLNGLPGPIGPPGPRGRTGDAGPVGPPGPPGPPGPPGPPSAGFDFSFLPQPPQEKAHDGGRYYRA
T1 sequence (P08123 80-1119 limits assumed): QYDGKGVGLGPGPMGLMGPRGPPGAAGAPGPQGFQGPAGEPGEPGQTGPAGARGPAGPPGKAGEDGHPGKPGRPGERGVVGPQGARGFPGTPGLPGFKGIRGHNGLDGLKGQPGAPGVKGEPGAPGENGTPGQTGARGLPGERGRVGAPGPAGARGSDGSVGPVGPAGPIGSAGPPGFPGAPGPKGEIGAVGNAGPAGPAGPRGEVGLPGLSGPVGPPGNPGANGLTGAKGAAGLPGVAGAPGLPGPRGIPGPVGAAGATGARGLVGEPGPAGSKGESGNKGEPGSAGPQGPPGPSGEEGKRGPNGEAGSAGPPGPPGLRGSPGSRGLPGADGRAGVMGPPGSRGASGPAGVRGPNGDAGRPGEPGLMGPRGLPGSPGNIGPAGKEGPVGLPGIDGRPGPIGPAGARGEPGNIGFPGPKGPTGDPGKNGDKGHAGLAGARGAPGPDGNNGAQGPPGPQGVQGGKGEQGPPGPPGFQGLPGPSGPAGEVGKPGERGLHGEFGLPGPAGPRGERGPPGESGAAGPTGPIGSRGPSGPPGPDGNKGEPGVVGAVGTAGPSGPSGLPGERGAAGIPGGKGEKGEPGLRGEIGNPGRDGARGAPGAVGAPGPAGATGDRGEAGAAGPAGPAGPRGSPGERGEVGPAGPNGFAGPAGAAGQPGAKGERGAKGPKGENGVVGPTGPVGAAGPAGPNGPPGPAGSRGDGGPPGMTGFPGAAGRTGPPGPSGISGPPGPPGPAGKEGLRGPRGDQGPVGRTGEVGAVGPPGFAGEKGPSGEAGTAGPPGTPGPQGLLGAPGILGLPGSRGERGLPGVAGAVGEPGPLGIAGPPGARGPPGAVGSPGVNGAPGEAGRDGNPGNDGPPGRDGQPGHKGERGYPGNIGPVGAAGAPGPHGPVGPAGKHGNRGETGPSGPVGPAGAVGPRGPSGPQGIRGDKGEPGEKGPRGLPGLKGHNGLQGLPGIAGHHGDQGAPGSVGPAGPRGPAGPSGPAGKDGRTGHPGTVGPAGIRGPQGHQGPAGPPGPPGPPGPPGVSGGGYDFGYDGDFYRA
Experimental: 10 ml of a solution of 3 mg/ml of human type I collagen (VitroCol solution, Advanced Biomatrix, cat#5007-A) is dialyzed against 10 mM Phosphate (NaH2PO4), pH 4.2 at 4° C. with three changes of the dialysis buffer. The protein concentration is determined by liquid chromatography determination of hydroxyproline (P. Hutson, J. Chromatogr. B, 791 (2003) 427-430).
Ice-cold 1×PBS pH 10.8 is added to the collagen solution for a final collagen concentration of 10 μM, pH 7.4. Collagen solutions are gelled and dried down in the wells of a 96 well microtiter plate (Corning Polystyrene Flat Bottom, cat#3641). […] The final well content of gelled collagen is measured by determination of hydroxyproline and is around 180 μg/ml.
a serial dilution of 0.2 μM-30 μM of the peptide chelate is prepared in PBS, pH 7.4 ([…], of solution for each concentration). […] The concentration of free, unbound compound in the sample supernatants and the concentration of compound in the reserved (total) sample are determined by ICP-MS (Agilent 7500, gadolinium concentration). The concentration of compound bound to collagen is determined as [bound]=[total]−[unbound].
The binding of compounds to human, rat and dog collagen (5 μM) was measured over the concentration range 0.2-5 μM of Comp ID Nos.: 1-4. […]

myocardium = assay type: in vivo; settings: Compound ID No. 1 7.5 μmol/kg (canine) vs EP-3600 12.3 μmol/kg (pig)
Experimental: To mimic severe ischemia, a canine model was used in which an inflatable variable vascular occluder was placed around the left anterior descending coronary artery (LAD) to allow occlusion and reperfusion. Imaging was performed on a 3T clinical scanner 4 days after implantation of the occluder. The conventional saturation recovery pulse sequence for stress perfusion imaging was compared with a segmented inversion method. The purpose of the segmented inversion method was to leverage the steady-state properties of Compound ID No. 1. This segmented inversion recovery pulse sequence provides greater T1 weighting, higher spatial resolution, and greater myocardial tissue contrast. Additionally, since imaging is delayed, the entire heart can be imaged. After baseline […] scanning, the balloon was inflated. […]
To assess relative perfusion, labeled microspheres were administered at 3 timepoints in the study. […] At autopsy under ultraviolet light, the hypo-perfused myocardium was differentiated from normal myocardium due to the lack of fluorescence in the hypo-perfused tissue. Based on the fluorescence, a sample of the ischemic territory and a sample of the remote myocardium were taken for ex vivo analysis. These tissue samples were weighed, digested in nitric acid, and analyzed for the elements La, Au, Lu (the three microsphere injections) and gadolinium (Compound ID No. 1) using ICP-MS. […]

Kd (human type I collagen): 3.8 µM
Structure (SMILES): CC(C)C[C@H](NC(=O)[C@@H]1CSSC[C@H](NC(=O)[C@H](Cc2c[nH]cn2)NC(=O)[C@H](Cc2c[nH]c3ccccc23)NC(=O)[C@H](CCCCNC(=O)CC[C@H](C(=O)O)N2CCN(CC(=O)O)CCN(CC(=O)O)CCN(CC(=O)O)CC2)NC(=O)CNC(=O)CC[C@H](C(=O)O)N2CCN(CC(=O)O)CCN(CC(=O)O)CCN(CC(=O)O)CC2)C(=O)N[C@@H]([C@@H](C)O)C(=O)N[C@@H]([C@@H](C)O)C(=O)N[C@@H](CCCCNC(=O)CC[C@H](C(=O)O)N2CCN(CC(=O)O)CCN(CC(=O)O)CCN(CC(=O)O)CC2)C(=O)N[C@@H](Cc2ccccc2)C(=O)N2CCC[C@H]2C(=O)N[C@@H](Cc2c[nH]cn2)C(=O)N[C@@H](Cc2c[nH]cn2)C(=O)N[C@@H](Cc2ccc(O)cc2)C(=O)N1)C(=O)N[C@@H](Cc1ccc(O)cc1)C(=O)N[C@@H](Cc1ccc(-c2ccccc2)cc1)C(N)=O [Compound ID No. 1]
pharmacokinetic profile [1]: rapid initial blood clearance | ΔCNR relative to EP-3600 (fold higher) (myocardium): 3 to 4 fold
